{"source": "patent US7037942B2", "about": "“Amide compounds for the potentiation of cholinergic activity” (Astellas Pharma Inc., priority 1999, dated 2006)", "test_system": "penile erection", "test": "Penile erection in rat", "assay_type": "in vivo", "settings": "male Fischer 344 rats, intraperitoneal, observed 60 minutes, mean number", "experimental": "(This test was carried out according to a similar manner to that described in Jpn. J. Pharmacol., Vol. 64, 147–153 (1994))\nMale Fischer 344 rats at the age of 8 weeks (n=7) were used. All rats were handled 3 minutes a day for three successive days before the tests. The rats were tested in groups of seven and various doses of the test compound were given in semi-randomized order. The test compounds were suspended in 0.5% methyl-cellulose immediately before use, and given intraperitoneally in a volume of 1 ml/kg just before the start of test. […] A mirror was situated behind each box […]. Data was expressed as a mean number.", "data": [{"smiles": "O=C(Nc1ccc(F)cc1)N1CC=CCC1", "note": "[Example 2, 1-(4-fluorophenylcarbamoyl)-1,2,3,6-tetrahydropyridine]", "values": [{"measurement": "Penile Erection (Number/hr)", "setting": "dose 0.32 mg/kg", "result": 0.57, "unit": "Number/hr"}]}, {"smiles": "O=C(NC1CCc2ccccc2C1)c1ccncc1", "note": "(stereo not shown) [Example 8, 2-(Pyridin-4-ylcarbonylamino)-1,2,3,4-tetrahydro-naphthalene]", "values": [{"measurement": "Penile Erection (Number/hr)", "setting": "dose 0.1 mg/kg", "result": 0.60, "unit": "Number/hr"}]}, {"smiles": "CC1=CCC(NC(=O)c2ccncc2)CC1", "note": "(stereo not shown) [Example 7, 1-(pyridin-4-ylcarbonylamino)-4-methylcyclohex-3-ene]", "values": [{"measurement": "Penile Erection (Number/hr)", "setting": "dose 0.1 mg/kg", "result": 0.71, "unit": "Number/hr"}]}, {"smiles": "O=C(NC1CCc2ccccc2C1)c1ccc(F)cc1", "note": "(stereo not shown) [Example 6, 2-(4-Fluorobenzoylamino)-1,2,3,4-tetrahydronaphthalene]", "values": [{"measurement": "Penile Erection (Number/hr)", "setting": "dose 0.32 mg/kg", "result": 0.60, "unit": "Number/hr"}]}]}
